Patent US6277866A, “1-benzyl-4[(5,6-dimethoxy-2-fluoro-1-indanon)-2-yl]methylpiperidine” (priority 1999, dated 2001)
Counter-ions that a name gives are not always drawn.

Biological target: T1, acetylcholinesterase (Rattus norvegicus, UniProt P37136)
T1 construct: Using a rat brain homogenate as a source of acetylcholinesterase; from tissue; host or cells: rat brain homogenate
Assay: Inhibitory action on acetylcholinesterase in vitro (rat brain homogenate, Ellman method)
Assay type: biochemical
Details: acetylthiocholine substrate, DTNB, 412 nm, compounds dissolved in physiological saline, read-out: 50% inhibitory concentration (IC50) on acetylcholinesterase
Procedure: Inhibitory action on acetylcholinesterase in vitro
Using a rat brain homogenate as a source of acetylcholinesterase, its esterase activity was measured in accordance with the method of Ellman et al^1). Acetylthiocholine as the substrate, sample and DTNB (5,5'-dithiobis(2-nitrobenzoic acid)) were added to the homogenate and incubated, whereby the produced thiocholine was reacted with DTNB and the resulting yellow product was measured for the change of absorbance at 412 nm to determine the acetylcholinesterase activity.
Each of the following compounds was used after dissolved in physiological saline.

T1 sequence (P37136 32-614): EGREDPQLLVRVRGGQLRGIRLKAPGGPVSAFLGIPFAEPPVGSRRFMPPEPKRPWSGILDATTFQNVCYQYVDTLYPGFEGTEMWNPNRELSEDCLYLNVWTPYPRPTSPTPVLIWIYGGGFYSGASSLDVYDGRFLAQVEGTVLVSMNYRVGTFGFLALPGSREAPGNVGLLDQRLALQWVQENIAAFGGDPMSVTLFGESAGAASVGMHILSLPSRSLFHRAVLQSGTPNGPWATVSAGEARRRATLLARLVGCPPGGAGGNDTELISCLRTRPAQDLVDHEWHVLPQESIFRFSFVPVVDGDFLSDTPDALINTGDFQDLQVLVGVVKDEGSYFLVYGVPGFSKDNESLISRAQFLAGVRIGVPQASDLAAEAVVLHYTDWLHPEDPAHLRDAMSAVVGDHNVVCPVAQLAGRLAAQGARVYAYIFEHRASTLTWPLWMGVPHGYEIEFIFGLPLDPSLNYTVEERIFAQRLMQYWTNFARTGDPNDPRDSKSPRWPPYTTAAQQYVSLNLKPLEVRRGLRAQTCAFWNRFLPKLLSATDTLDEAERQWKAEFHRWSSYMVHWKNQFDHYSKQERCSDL

SMILES: COc1cc2c(cc1OC)C(=O)C(F)(CC1CCN(Cc3ccccc3)CC1)C2 (stereo not shown) [Compound 1, 1-benzyl-4-[5,6-dimethoxy-2-fluoro-1-indanon)-2-yl]methylpiperidine hydrochloride]
- IC50: 1.3 nM
